Assay results published in US20070155803A1, “Protease inhibitors” (ProZymex A/S, priority 2003, published 2007).
Square brackets hold non-standard residues; d marks the D form. Peptide text beside a SMILES is read from it. Phe(3-F) = N[C@@H](Cc1cccc(F)c1)C(=O)O; hPhe = N[C@@H](CCc1ccccc1)C(=O)O; Abu = CC[C@H](N)C(=O)O; azaGly = NNC(=O)O

Legend:
Assay type in all cases: biochemical
Human liver cathepsin B = biological target: T1, Human liver cathepsin B (Homo sapiens, UniProt P07858); assay: Human liver cathepsin B assay
T1 construct: Human liver cathepsin B (Enzyme System Products, CAT-B); purchased Enzyme System Products CAT-B; host or cells: human liver
Description: Human Liver Cathepsin B Assay
Using this assay, the selectivity of a compound of the invention for hDPP-I over human cathepsin B was determined, using a fluorogenic substrate.
0.1 M MES buffer (1.95 g; M=195.2) and 1 mM EDTA (37 mg; M=372.2) were mixed in 100 mL H2O and pH adjusted to 6.1. DTT (10 μL, 0.5 M) was added for activation of the enzyme […].
Human liver cathepsin B (Enzyme System Products, CAT-B; stock 25 μg/54 μL=463 ng/μL). One aliquot was diluted to a concentration of 40 ng/μL by adding 53 μL assay buffer (without DTT). Just prior to experiment, two more dilution steps were performed: 4 ng/μL: 5 μL (40 ng/μL)+45 μL buffer (without DTT) 0.1 ng/μL: 5 μL (4 ng/μL)+[…] buffer (without DTT)
Boc-Leu-Arg-Arg-AFC.2TFA (Enzyme System Products AFC113). Stock solution made (20 mM; 15.1 mg dissolved in 1 ml DMSO). Diluted further in H2O to 10 mM. Km for this substrate has been determined to be 600 μM.
The assay was performed in 96-well plates. 84 μL assay buffer was added to the well followed by 10 μL 1% DMSO in assay buffer (control) or a compound, of the invention (10 μM in the assay). […] The excitation wavelength was 400 nm, and the emission was measured at 505 nm for 10-20 minutes at 37° C. […] In the software (SOFTmax Pro) used for data collection from the fluorometer (Molecular Devices: Gemini XS), it was ensured that the measured slopes were linear (R^2>0.99). […]

Human DPP-I = biological target: T2, Human DPP-I (Homo sapiens, UniProt P53634); assay: Human Dipeptidyl Peptidase I (DPP-I) assay, AFC substrate; conditions: Gly-Phe-AFC substrate, pH 6.0, read-out: Primary enzymatic screening (IC50) DPP-I
T2 construct: purchased UniZyme A/S
Description: Human Dipeptidyl Peptidase I (DPP-I) Assay
Using this assay, the IC50 value of a compound of the invention as a DPP-I inhibitor was determined using an AFC substrate.
100 mM sodium phosphate (8.9 g Na2HPO4; M=177.99), 150 mM KCl (5.6 g KCl; M=74.6) and 1.5 mM EDTA (279 mg EDTA; M=372.2) was dissolved in 500 mL H2O, and pH was adjusted to 6.0. Cysteine*HCl (Sigma C-1276; M=157.6), 1 mg/mL assay buffer, corresponding to 6 mM, was added to the solution for activation of the DPP-I enzyme.
Gly-Phe-AFC*TFA (Enzyme Systems Products AFC-033) was used as the substrate for determination of IC50 values. […] The substrate was solubilized in DMSO to give a 7.5 mM stock solution (2.2 mg of substrate was added to 0.5 mL DMSO).
Human DPP-I (hDDP-I; obtained from UniZyme A/S, DK-2970 Horsholm, Denmark) was stored at −20° C. in a buffer containing 2.5 mM Na-phosphate, 150 mM NaCl, 2 mM cysteamine, 50% glycerol, pH 7.0 at a concentration of 2.5 mg/mL. This stock solution was diluted 200 times in the assay buffer.
Th assay was performed in 96-well plates. […] The excitation wavelength was 400 nm, and the emission was measured at 505 nm for 10 minutes at 37° C. […] In the software (SOFTmax Pro) used for data collection from the fluorometer (Molecular Devices: Gemini XS), it was erisured that the measured slopes were linear (R^2>0.99). […]

Human cathepsin G = biological target: T3, Human cathepsin G (Homo sapiens, UniProt P08311); assay: Human cathepsin G assay
T3 construct: purchased Calbiochem 219373
T3 sequence (P08311 21-244): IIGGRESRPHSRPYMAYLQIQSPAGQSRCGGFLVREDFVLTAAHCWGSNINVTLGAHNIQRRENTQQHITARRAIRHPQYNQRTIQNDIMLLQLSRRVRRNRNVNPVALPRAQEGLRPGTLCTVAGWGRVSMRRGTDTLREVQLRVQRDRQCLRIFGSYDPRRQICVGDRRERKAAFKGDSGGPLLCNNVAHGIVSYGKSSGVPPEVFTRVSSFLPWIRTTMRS
Description: Using this assay, the selectivity of a compound of the invention for hDPP-I over human cathepsin G was determined, using a chromogenic substrate.
Buffer containing 100 mM Tris/HCl pH 8.3 (25° C.), 500 mM NaCl, and 20 mM CaCl2 prepared. DTNB (5,5′-dithio-bis(2-nitrobenzoic acid)) was added just prior to experiment (10 μL 1.25 mM/well).
Human cathepsin G (Calbiochem Cat # 219373, 50 ng/μL 0.1 mU/μL stock) was reconstituted in 50 mM sodium acetate and 150 mM NaCl (pH 5.5), and stored at −20° C. Diluted to 2 ng/μL in buffer just prior to experiment.
Suc-Ala-Ala-Pro-Phel-SBzl (Bachem Cat # 4009924.0050) diluted to 1 mM in buffer from 10 mM stock in buffer. Km determined to 100-200 μM.
The assay was performed in 96-well plates. 60 μL assay buffer was added to the well followed by 10 μL DTNB (1.25 mM), and 10 μL of a compound of the invention (100 μM, diluted with assay buffer to give 10 μM in the assay). Then 10 μL (2 ng/μL) enzyme was added, and 10 min. later (at 37° C.) 10 μL substrate (100 μM final concentration) was added. The absorption was measured at 410 nm for 10 minutes at 37° C. Each measurement was made in duplicate. In the software (SOFTmax Pro) used for data collection from the UV-spectrometer it was ensured that the measured slopes were linear (R^2>0.99). […]

Human liver cathepsin L = biological target: T4, Human liver cathepsin L (Homo sapiens, UniProt P07711); assay: Human liver cathepsin L assay
T4 construct: Human liver cathepsin L (Enzyme System Products, Catl-1); purchased Enzyme System Products Catl-1; host or cells: human liver
Description: Human Liver Catheosin L Assay
Using this assay, the selectivity of a compound of the invention for hDPP-I over human cathepsin L was determined, using a fluorogenic substrate.
Human liver cathepsin L (Enzyme System Products, Catl-1; 5 μL of a 1.61 μU/IμL stock) was solubilized in 2500 μL enzyme buffer. Prior to running experiment, 1 μL 0.5 M DTT/100 μL enzyme Solution was added. inoubated for 5 minutes on ice then added to reaction mixture.
Z-Phe-ARG-AFC*TFA (Enzyme System Products AF052; 15.6 mg) was dissolved in 1 mL DMSO, giving a 20 mM solution.
The assay was performed in 96-well plates. 50 μL assay buffer was added to the well followed by 25 μL reference inhibitor (cystatin, stock 1 mg/mL, diluted with assay buffer to give 25 nM in assay) or a compound of the invention (diluted with assay buffer to give 10 μM in the assay). Then 25 μL (80 nU) enzyme was added, and 1 min. later (at 37° C.) 100 μL substrate (10 μM in the assay) was added. The excitation wavelength was 400 nm, and the emission was measured at 505 nm for 10-20 minutes at 37° C. Each measurement was made in duplicate. In the software (SOFTmax Pro) used for data collection from the fluorometer (Molecular Devices: Gemini XS), it was ensured that the measured slopes were linear (R^2>0.99). Data were exported to GraphPad Prism and nonlinear regression was performed using the option Sigmoidal dose-response (variable slope).

T4 sequence (P07711 114-333): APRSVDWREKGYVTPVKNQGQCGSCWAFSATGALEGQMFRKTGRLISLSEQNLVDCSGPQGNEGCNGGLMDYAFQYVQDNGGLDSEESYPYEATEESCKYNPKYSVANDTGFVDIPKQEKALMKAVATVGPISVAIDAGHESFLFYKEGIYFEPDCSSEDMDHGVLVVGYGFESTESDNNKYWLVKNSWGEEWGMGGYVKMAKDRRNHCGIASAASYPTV
T2 sequence (P53634 231-394 limits assumed): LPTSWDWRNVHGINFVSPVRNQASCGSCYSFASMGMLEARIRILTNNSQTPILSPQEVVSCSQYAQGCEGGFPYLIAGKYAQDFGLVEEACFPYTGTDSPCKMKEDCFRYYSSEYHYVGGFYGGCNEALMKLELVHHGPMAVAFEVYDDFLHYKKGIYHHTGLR
T2 sequence (P53634 395-463 limits assumed): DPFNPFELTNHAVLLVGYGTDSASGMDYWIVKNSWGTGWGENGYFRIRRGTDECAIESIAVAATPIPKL
T2 sequence (P53634 25-143 limits assumed): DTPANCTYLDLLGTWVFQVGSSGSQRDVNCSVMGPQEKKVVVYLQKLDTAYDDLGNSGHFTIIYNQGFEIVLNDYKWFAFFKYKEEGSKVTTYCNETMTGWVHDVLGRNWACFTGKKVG

CC[C@H](N)C(=O)NNC(=O)N[C@@H](CCc1ccccc1)C(=O)N[C@@H](Cc1cccc(F)c1)C(N)=O [Example 11, 1-(2S-2-Aminobutanoyl)-4-[2S-N-[2S-3-(m-fluorophenyl)propan-2-yl-amide]-4-phenylbutan-2-yl-amide]semicarbazide] (H-[Abu][azaGly][hPhe][Phe(3-F)]-NH2)
Inhibition of Cathepsin B (in words) (Human liver cathepsin B): does not inhibit
IC50 (Human liver cathepsin B; human liver cathepsin B, read-out: Secondary enzymatic screening (10 μM cutoff or IC50) Cathepsin B): 4.5 µM
IC50 (Human DPP-I): 0.04 ± 0.006 µM
Inhibition of Cathepsin G (in words) (Human cathepsin G): does not inhibit
IC50 (Human cathepsin G; human cathepsin G, 10 μM cutoff, read-out: Secondary enzymatic screening (10 μM cutoff or IC50) Cathepsin G): > 10 µM
Inhibition of Cathepsin L (in words) (Human liver cathepsin L): does not inhibit
IC50 (Human liver cathepsin L; human liver cathepsin L, 10 μM cutoff, read-out: Secondary enzymatic screening (10 μM cutoff or IC50) Cathepsin L): > 10 µM
